Among the test systems are PC-3 prostate; MDA-MB-435; SK-MEL-2 melanoma; A498 renal; HS 578T breast; T-47D breast; NCI-H460 lung; CAKI-1 renal; DU-145 prostate; MALME-3M melanoma; MOLT-4 leukemia; SW-620 colon; SF-268 CNS; K-562 leukemia; LOX IMVI melanoma; MDA-MB-231 breast; OVCAR-8 ovarian; CCRF-CEM leukemia; SR leukemia.
Holding throughout (experiment): NCI-60 cell line screen, 48 h

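How tested: cells in 96-well plates exposed to compound for 48 hours at five concentrations. TGI is the concentration that stops growth completely.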

As for `CCS1=C2C(=O)CC(C)(C)CC2=Nc2ccccc21` (stereo not drawn), the TGI in the assay on PC-3 prostate, with MDA-MB-435, in the assay with SK-MEL-2 melanoma, in the assay on A498 renal, with HS 578T breast and in the assay on T-47D breast was greater than 100 µM each time. The TGI with NCI-H460 lung, with CAKI-1 renal, in the assay with DU-145 prostate, in the assay with MALME-3M melanoma, in the assay with MOLT-4 leukemia and in the assay with SW-620 colon was greater than 100 µM in each case. The TGI with SF-268 CNS, with K-562 leukemia, in the assay on LOX IMVI melanoma, with MDA-MB-231 breast, in the assay with OVCAR-8 ovarian and with CCRF-CEM leukemia was greater than 100 µM throughout. The molecule further came in with a TGI in the assay with SR leukemia greater than 100 µM.
In the case of `O=C1c2cc3c(cc2CC12Cc1ccccc1C2)CCC3`, the TGI in the assay with PC-3 prostate is greater than 100 µM; in the assay on MDA-MB-435 it was 73.1 µM; in the assay with SK-MEL-2 melanoma it was 51.8 µM; with A498 renal, greater than 100 µM; in the assay on HS 578T breast, greater than 100 µM; in the assay with T-47D breast it was greater than 100 µM. Moreover, the TGI in the assay on NCI-H460 lung is greater than 100 µM; with CAKI-1 renal, 75.1 µM; in the assay with DU-145 prostate, greater than 100 µM; in the assay on MALME-3M melanoma it was 71.5 µM; with MOLT-4 leukemia, 54.5 µM; in the assay on SW-620 colon, greater than 100 µM. Further, the TGI is 93.7 µM in the assay with SF-268 CNS; greater than 100 µM in the assay with K-562 leukemia; 36 µM in the assay on LOX IMVI melanoma; 66.7 µM with MDA-MB-231 breast; 76.7 µM with OVCAR-8 ovarian; 98.3 µM with CCRF-CEM leukemia. The molecule further returned a TGI in the assay on SR leukemia of 74.7 µM.
As for `NC(=O)N/N=C\CC(O)(C(F)(F)Cl)C(F)(F)Cl`, the TGI in the assay with PC-3 prostate, in the assay with MDA-MB-435, in the assay with SK-MEL-2 melanoma, in the assay on A498 renal, in the assay with HS 578T breast and with T-47D breast was greater than 10 µM throughout. The TGI in the assay with NCI-H460 lung, with CAKI-1 renal, with DU-145 prostate, in the assay on MALME-3M melanoma, in the assay with MOLT-4 leukemia and with SW-620 colon was greater than 10 µM throughout. Moreover, the TGI in the assay with SF-268 CNS, with K-562 leukemia, in the assay with LOX IMVI melanoma, with MDA-MB-231 breast, in the assay with OVCAR-8 ovarian and in the assay on CCRF-CEM leukemia was greater than 10 µM each time. The same molecule displayed a TGI with SR leukemia greater than 10 µM.
In the case of `CCCCCCCCCCC/C=C(/C(=O)CCCO[Si](C)(C)C(C)(C)C)C(=O)OC`, the TGI in the assay with PC-3 prostate, in the assay on MDA-MB-435, in the assay on SK-MEL-2 melanoma, in the assay with A498 renal, in the assay with HS 578T breast and in the assay with T-47D breast was greater than 100 µM throughout. Also, the TGI in the assay on NCI-H460 lung, with CAKI-1 renal, in the assay with DU-145 prostate, in the assay on MALME-3M melanoma, in the assay with MOLT-4 leukemia and in the assay on SW-620 colon was greater than 100 µM throughout. Moreover, the TGI with SF-268 CNS, in the assay with K-562 leukemia, in the assay with LOX IMVI melanoma, in the assay with MDA-MB-231 breast, in the assay with OVCAR-8 ovarian and with CCRF-CEM leukemia was greater than 100 µM throughout. The TGI in the assay on SR leukemia is greater than 100 µM.
Regarding `C/C(O)=C(/C=N/C(=S)Nc1ccccc1)C(=O)Nc1ccccc1C`, the TGI in the assay on PC-3 prostate, in the assay with MDA-MB-435, with SK-MEL-2 melanoma, in the assay with A498 renal, in the assay on HS 578T breast and in the assay with T-47D breast was greater than 100 µM in each case. The TGI in the assay on NCI-H460 lung, in the assay with CAKI-1 renal, in the assay with DU-145 prostate, in the assay with MALME-3M melanoma, with MOLT-4 leukemia and in the assay on SW-620 colon was greater than 100 µM each time. The TGI in the assay on SF-268 CNS, in the assay with K-562 leukemia, with LOX IMVI melanoma, in the assay with MDA-MB-231 breast, with OVCAR-8 ovarian and with CCRF-CEM leukemia was greater than 100 µM in each case. In addition, the TGI in the assay with SR leukemia is greater than 100 µM.
Regarding `O=C(N/C(=C\c1ccccc1)c1nc2ccccc2c(=O)o1)c1ccccc1`, the TGI in the assay on PC-3 prostate was greater than 100 µM; with MDA-MB-435, greater than 100 µM; in the assay on SK-MEL-2 melanoma it was greater than 100 µM; in the assay on A498 renal it was greater than 100 µM; with HS 578T breast, 75.7 µM; with T-47D breast, greater than 100 µM. Moreover, the TGI in the assay with NCI-H460 lung, in the assay with CAKI-1 renal, in the assay with DU-145 prostate, with MALME-3M melanoma, in the assay on MOLT-4 leukemia and with SW-620 colon was greater than 100 µM in each case. For the same molecule, the TGI with SF-268 CNS is greater than 78.2 µM; in the assay with K-562 leukemia it was greater than 100 µM; in the assay with LOX IMVI melanoma, greater than 100 µM; in the assay on MDA-MB-231 breast, greater than 71.9 µM; with OVCAR-8 ovarian it was greater than 100 µM; with CCRF-CEM leukemia, greater than 100 µM. Also, in the assay with SR leukemia, the TGI is greater than 100 µM.
As for `S=C(NCCc1ccccn1)N/N=C(\c1ccccc1)c1ccccn1`, the TGI is greater than 100 µM in the assay with PC-3 prostate; greater than 100 µM with MDA-MB-435; greater than 100 µM with SK-MEL-2 melanoma; 0.951 µM with A498 renal; greater than 100 µM in the assay with HS 578T breast; greater than 75.7 µM in the assay on T-47D breast. Further, the TGI in the assay on NCI-H460 lung is greater than 100 µM; with CAKI-1 renal it was greater than 58.8 µM; in the assay on DU-145 prostate, greater than 48.6 µM; in the assay with MALME-3M melanoma, greater than 100 µM; in the assay on MOLT-4 leukemia, greater than 78.6 µM; with SW-620 colon, greater than 100 µM. The TGI is greater than 76.1 µM in the assay on SF-268 CNS; greater than 100 µM in the assay with K-562 leukemia; 36.1 µM in the assay with LOX IMVI melanoma; greater than 100 µM with MDA-MB-231 breast; 17.4 µM with OVCAR-8 ovarian; greater than 100 µM in the assay on CCRF-CEM leukemia. Also, in the assay on SR leukemia, the TGI is greater than 57.7 µM.
